According to US20260022122A1 (Checkmate Therapeutics Inc., priority 2022, published 2026):

These compounds were tested against NamPT (Homo sapiens (Human), UniProt P43490) (assay: Measurement of NamPT inhibitory ability IC50 (NamPT colorimetric assay kit, Abcam ab221819)). Details: NamPT recombinant protein, WST-1 absorbance at 450 nm; class key in μM.
Type: biochemical
Experimental: To test the effect of the compound prepared in each Example on the substrate decomposition rate (Vmax/min) mediated by NamPT enzyme, IC50 was calculated. In this experiment, the NamPT colorimetric assay kit (ab221819) produced by Abcam was used, and Graph prism software was used for IC50 calculation. PRPP, ATP, NMNAT1, NamPT recombinant proteins, and various concentrations of the compound of each Example (half-log step dilution from 100 μM) were added to nicotinamide to synthesize nicotinamide adenine dinucleotide (NAD) from the nicotinamide, and a total of 60 μL of the reaction solution was reacted at room temperature for 1 hour. WST-1 formazan converted by NAD generated by adding WST-1 was measured. The result of the reaction was obtained by the following formula by measuring absorbance using EnVision2105 (PerkinElmer) at 450 nm for 60 minutes at 2-minute intervals.
In Mathematical Formula 1, T1 and T2 are arbitrary times, and A1 and A2 represent the absorbance measured at T1 and T2 at 450 nm, respectively.
The results of measuring the NamPT inhibition activity of the compound of each Example obtained through the above experiment are shown in Table 1 in the unit of IC50 (nM), and the result values are expressed as follows.

Sequence of NamPT (P43490 whole entry): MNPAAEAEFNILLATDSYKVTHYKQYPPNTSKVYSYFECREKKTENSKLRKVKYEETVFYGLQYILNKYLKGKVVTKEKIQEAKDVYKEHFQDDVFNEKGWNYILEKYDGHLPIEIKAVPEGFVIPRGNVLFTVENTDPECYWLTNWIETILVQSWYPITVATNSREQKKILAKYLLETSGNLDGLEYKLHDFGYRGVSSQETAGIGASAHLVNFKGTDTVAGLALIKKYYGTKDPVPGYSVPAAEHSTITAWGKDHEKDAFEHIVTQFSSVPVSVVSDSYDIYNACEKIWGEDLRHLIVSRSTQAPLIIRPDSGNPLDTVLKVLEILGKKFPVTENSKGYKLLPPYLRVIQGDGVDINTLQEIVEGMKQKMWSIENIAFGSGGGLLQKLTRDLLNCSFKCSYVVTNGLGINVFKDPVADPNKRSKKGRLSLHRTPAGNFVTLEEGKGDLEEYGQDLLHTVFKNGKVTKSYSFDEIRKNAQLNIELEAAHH

Cc1ccc2nc(-c3ccc(CNC(=O)c4cnc5nccn5c4)cc3)oc2c1 [Example 1, N-[[4-(6-methyl-1,3-benzoxazol-2-yl)phenyl]methyl]imidazo[1,2-a]pyrimidin-6-carboxamide] and Nc1ccc2nc(-c3ccc(CNC(=O)c4cnc5nccn5c4)cc3)oc2c1 [Example 26, N-[[4-(6-amino-1,3-benzoxazol-2-yl)phenyl]methyl]imidazo[1,2-a]pyrimidin-6-carboxamide] fall in the same range of IC50: 0.051 to 0.1 µM for the first, 0.051 to 0.1 µM for the second.

Compared with O=C(O)c1ccc2nc(-c3ccc(CNC(=O)c4cnc5nccn5c4)cc3)oc2c1 [Example 5, 2-[4-[(imidazo[1,2-a]pyrimidin-6-carbonylamino)methyl]phenyl]-1,3-benzoxazol-6-carboxylic acid], CCc1ccc2nc(-c3ccc(CNC(=O)c4cnc5nccn5c4)cc3)oc2c1 [Example 45, N-[[4-(6-ethyl-1,3-benzoxazol-2-yl)phenyl]methyl]imidazo[1,2-a]pyrimidin-6-carboxamide] is lower in IC50: 0.11 to 1 µM for the first, < 0.05 µM for the second. The second is the more potent here.

COc1ccc2oc(-c3ccc(CNC(=O)c4cnc5nccn5c4)cc3)nc2c1 [Example 7, N-[[4-(5-methoxy-1,3-benzoxazol-2-yl)phenyl]methyl]imidazo[1,2-a]pyrimidin-6-carboxamide] and O=C(NCc1ccc(-c2nc3cc(Cl)ccc3o2)cc1)c1cnc2nccn2c1 [Example 16, N-[[4-(5-chloro-1,3-benzoxazol-2-yl)phenyl]methyl]imidazo[1,2-a]pyrimidin-6-carboxamide] cannot be ordered by IC50: < 0.05 µM for the first, < 0.05 µM for the second.

Compared with Cc1ccc2nc(-c3ccc(CNC(=O)c4cnc5nccn5c4)cc3)sc2c1 [Example 8, N-[[4-(6-methyl-1,3-benzothiazol-2-yl)phenyl]methyl]imidazo[1,2-a]pyrimidin-6-carboxamide], Cc1cccc2nc(-c3ccc(CNC(=O)c4cnc5nccn5c4)cc3)oc12 [Example 21, N-[[4-(7-methyl-1,3-benzoxazol-2-yl)phenyl]methyl]imidazo[1,2-a]pyrimidin-6-carboxamide] is higher in IC50: < 0.05 µM for the first, 0.11 to 1 µM for the second.

First: CCS(=O)(=O)c1ccc2nc(-c3ccc(CNC(=O)c4cnc5nccn5c4)cc3)oc2c1 [Example 14, N-[[4-(6-ethylsulfonyl-1,3-benzoxazol-2-yl)phenyl]methyl]imidazo[1,2-a]pyrimidin-6-carboxamide]
Second: CCS(=O)(=O)c1ccc2oc(-c3ccc(CNC(=O)c4cnc5nccn5c4)cc3)nc2c1 [Example 37, N-[[4-(5-ethylsulfonyl-1,3-benzoxazol-2-yl)phenyl]methyl]imidazo[1,2-a]pyrimidin-6-carboxamide]
The IC50 of the first is lower: < 0.05 µM for the first, 0.11 to 1 µM for the second. The first is the more potent here.

First: CCC(=O)Nc1ccc2oc(-c3ccc(CNC(=O)c4cnc5nccn5c4)cc3)nc2c1 [Example 15, N-[[4-[5-(propanoylamino)-1,3-benzoxazol-2-yl]phenyl]methyl]imidazo[1,2-a]pyrimidin-6-carboxamide]
Second: CCc1ccc2oc(-c3ccc(CNC(=O)c4cnc5nccn5c4)cc3)nc2c1 [Example 44, N-[[4-(5-ethyl-1,3-benzoxazol-2-yl)phenyl]methyl]imidazo[1,2-a]pyrimidin-6-carboxamide]
The IC50 of the first is higher: 0.11 to 1 µM for the first, < 0.05 µM for the second.

Compared with O=C(NCc1ccc(-c2nc3cc(F)ccc3o2)cc1)c1cnc2nccn2c1 [Example 18, N-[[4-(5-fluoro-1,3-benzoxazol-2-yl)phenyl]methyl]imidazo[1,2-a]pyrimidin-6-carboxamide], O=C(NCc1ccc(-c2nc3cc(O)ccc3o2)cc1)c1cnc2nccn2c1 [Example 23, N-[[4-(5-hydroxy-1,3-benzoxazol-2-yl)phenyl]methyl]imidazo[1,2-a]pyrimidin-6-carboxamide] is lower in IC50: 0.11 to 1 µM for the first, < 0.05 µM for the second. The second is the more potent here.

First: Cc1cccc2oc(-c3ccc(CNC(=O)c4cnc5nccn5c4)cc3)nc12 [Example 20, N-[[4-(4-methyl-1,3-benzoxazol-2-yl)phenyl]methyl]imidazo[1,2-a]pyrimidin-6-carboxamide]
Second: Cc1ccc2nc(-c3ccc(CNC(=O)c4cnc5nccn5c4)cc3)oc2n1 [Example 24, N-[[4-(5-methyloxazolo[5,4-b]pyridin-2-yl)phenyl]methyl]imidazo[1,2-a]pyrimidin-6-carboxamide]
The IC50 of the first is higher: 0.11 to 1 µM for the first, < 0.05 µM for the second.

First: O=C(NCc1ccc(-c2nc3cc(Oc4ccccn4)ccc3o2)cc1)c1cnc2nccn2c1 [Example 25, N-[[4-[5-(2-pyridyloxy)-1,3-benzoxazol-2-yl]phenyl]methyl]imidazo[1,2-a]pyrimidin-6-carboxamide]
Second: O=C(NCc1ccc(-c2nc3cc(-c4cccnc4)ccc3o2)cc1)c1cnc2nccn2c1 [Example 27, N-[[4-[5-(3-pyridyl)-1,3-benzoxazol-2-yl]phenyl]methyl]imidazo[1,2-a]pyrimidin-6-carboxamide]
The IC50 of the first is lower: < 0.05 µM for the first, 0.051 to 0.1 µM for the second.

Compared with Cc1ccc2nc(-c3ccc(CNC(=O)c4cnc5nccn5c4)nc3)oc2c1 [Example 28, N-[[5-(6-methyl-1,3-benzoxazol-2-yl)-2-pyridyl]methyl]imidazo[1,2-a]pyrimidin-6-carboxamide], Cc1ccc2nc(-c3ccc(CNC(=O)c4cnc5nccn5c4)c(F)c3)oc2c1 [Example 35, N-[[2-fluoro-4-(6-methyl-1,3-benzoxazol-2-yl)phenyl]methyl]imidazo[1,2-a]pyrimidin-6-carboxamide] is lower in IC50: 0.11 to 1 µM for the first, < 0.05 µM for the second. The second is the more potent here.

CCOC(=O)c1ccc2oc(-c3ccc(CNC(=O)c4cnc5nccn5c4)cc3)nc2c1 [Example 29, ethyl 2-[4-[(imidazo[1,2-a]pyrimidin-6-carbonylamino)methyl]phenyl]-1,3-benzoxazol-5-carboxylate] and O=C(NCc1ccc(-c2nc3cc(CO)ccc3o2)cc1)c1cnc2nccn2c1 [Example 30, N-[[4-[5-(hydroxymethyl)-1,3-benzoxazol-2-yl]phenyl]methyl]imidazo[1,2-a]pyrimidin-6-carboxamide] cannot be ordered by IC50: < 0.05 µM for the first, < 0.05 µM for the second.

First: O=C(NCc1ccc(-c2nc3cnccc3o2)cc1)c1cnc2nccn2c1 [Example 36, N-[(4-oxazolo[4,5-c]pyridin-2-ylphenyl)methyl]imidazo[1,2-a]pyrimidin-6-carboxamide]
Second: O=C(NCc1ccc(-c2nc3cc(F)c(F)cc3o2)cc1)c1cnc2nccn2c1 [Example 39, N-[[4-(5,6-difluoro-1,3-benzoxazol-2-yl)phenyl]methyl]imidazo[1,2-a]pyrimidin-6-carboxamide]
The IC50 of the first is higher: 0.11 to 1 µM for the first, < 0.05 µM for the second. The second is the more potent here.

O=C(NCc1ccc(-c2nc3c(F)cc(F)cc3o2)cc1)c1cnc2nccn2c1 [Example 40, N-[[4-(4,6-difluoro-1,3-benzoxazol-2-yl)phenyl]methyl]imidazo[1,2-a]pyrimidin-6-carboxamide] and O=C(NCc1ccc(-c2nc3cc(Cl)c(C(F)(F)F)cc3o2)cc1)c1cnc2nccn2c1 [Example 42, N-[[4-[5-chloro-6-(trifluoromethyl)-1,3-benzoxazol-2-yl]phenyl]methyl]imidazo[1,2-a]pyrimidin-6-carboxamide] cannot be ordered by IC50: < 0.05 µM for the first, < 0.05 µM for the second.

O=C(NCc1ccc(-c2nc3cc(C(F)(F)F)c(Cl)cc3o2)cc1)c1cnc2nccn2c1 [Example 41, N-[[4-[6-chloro-5-(trifluoromethyl)-1,3-benzoxazol-2-yl]phenyl]methyl]imidazo[1,2-a]pyrimidin-6-carboxamide] and COc1cc2nc(-c3ccc(CNC(=O)c4cnc5nccn5c4)cc3)oc2cc1C [Example 43, N-[[4-(5-methoxy-6-methyl-1,3-benzoxazol-2-yl)phenyl]methyl]imidazo[1,2-a]pyrimidin-6-carboxamide] cannot be ordered by IC50: < 0.05 µM for the first, < 0.05 µM for the second.
